Experimental data: patent publication US10770169B2, “Method of providing a treatment to a subject based on a dynamic pathway map” (THE REGENTS OF THE UNIVERSITY OF CALIFORNIA, priority 2010, dated 2020)
“Also recorded” adds a separate entry of the source.

Columns and labels:
Type in all cases: cell-based, human
[1] = test system: panel of 55 breast cancer cell lines; test: Cell growth inhibition assay (Cell Titer Glo, 72 h, 9 doses; GI50, TGI, LC50); details: value is the negative log10 of mol/L
[2] = test system: luminal, basal, claudin-low and ERBB2AMP breast cancer cell lines; test: Associations of clinically relevant subtypes and response (non-parametric ANOVA or t-test on GI50 ranks); details: for Subtype specificity: Table 6, most sensitive subtype, FDR p<0.20
How it was run: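 GI50 values were compared between cell-line subtype groups by non-parametric ANOVA or t-test on ranks. P-values from three test sets were combined and FDR-corrected. Significant three-group effects were followed by post-hoc comparison of each group against all others, and FDR p<0.20 counted as significant.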

[3] = test system: breast cancer cell lines with aberrant vs normal copy number; test: Association of recurrent copy number changes and response (t-test on GI50); details: FDR p<0.2
From the text: We used a t-test to assess the association between recurrent copy number changes (at 8q24 (MYC), 11q13 (CCND1), 20q13 (STK15/AURKA)) and drug sensitivity. We combined into a single group cell lines with low or no amplification and compared them to cell lines with high amplification. […] Cell lines for which the GI50 was equal to the maximum concentration tested were omitted from analysis. We omitted compounds where any group had fewer than five samples.

[4] = 600MPE cell line, censored GI50 values
[5] = AU565 cell line, censored GI50 values
[6] = BT474 cell line, censored GI50 values
[7] = BT483 cell line, censored GI50 values
[8] = CAMA1 cell line, censored GI50 values
[9] = HCC38 cell line, censored GI50 values
[10] = HCC70 cell line, censored GI50 values
[11] = HCC202 cell line, censored GI50 values
[12] = HCC1143 cell line, censored GI50 values
[13] = HCC1187 cell line, censored GI50 values
[14] = HCC1395 cell line, censored GI50 values
[15] = HCC1419 cell line, censored GI50 values
[16] = HCC1428 cell line, censored GI50 values
[17] = HCC1500 cell line, censored GI50 values
[18] = HCC1806 cell line, censored GI50 values
[19] = HCC1937 cell line, censored GI50 values
[20] = HCC1954 cell line, censored GI50 values
[21] = HCC2185 cell line, censored GI50 values
[22] = HCC3153 cell line, censored GI50 values
[23] = MCF7 cell line, censored GI50 values
[24] = MDAMB134VI cell line, censored GI50 values
[25] = MDAMB157 cell line, censored GI50 values
[26] = MDAMB175VII cell line, censored GI50 values
[27] = MDAMB231 cell line, censored GI50 values
[28] = MDAMB361 cell line, censored GI50 values
[29] = MDAMB415 cell line, censored GI50 values
[30] = MDAMB436 cell line, censored GI50 values
[31] = MDAMB453 cell line, censored GI50 values
[32] = MDAMB468 cell line, censored GI50 values
[33] = SKBR3 cell line, censored GI50 values
[34] = SUM149PT cell line, censored GI50 values
[35] = SUM159PT cell line, censored GI50 values
[36] = SUM185PE cell line, censored GI50 values
[37] = SUM1315MO2 cell line, censored GI50 values

In the case of N.N.O=C([O-])C1(C(=O)[O-])CCC1.[Pt+2] [Carboplatin], the GI50 [1, 4] is reported as 3.82, the GI50 [1, 5] is reported as 4.94 and the GI50 [1, 6] is reported as 3.98. The GI50 [1, 7] was 5.82, the GI50 ([1]; BT549 cell line, censored GI50 values) was 4.58 and the GI50 [1, 8] was 3.72. It also gave a GI50 [1, 9] of 4.76, a GI50 [1, 10] of 4.82 and a GI50 [1, 11] of 4.44. For the same molecule, the GI50 [1, 12] was 3.85, the GI50 [1, 13] was 4.66 and the GI50 [1, 14] was 5.00. For the same molecule, the GI50 [1, 15] was 4.15, the GI50 [1, 16] was 3.86 and the GI50 [1, 17] was 4.69. For the same molecule, the GI50 [1, 18] was 4.80, the GI50 [1, 19] was 4.44 and the GI50 [1, 20] was 4.37. For the same molecule, the GI50 [1, 21] was 4.69, the GI50 [1, 22] was 4.45 and the GI50 ([1]; LY2 cell line, censored GI50 values) was 4.39. For the same molecule, the GI50 [1, 23] was 3.77, the GI50 [1, 24] was 3.73 and the GI50 [1, 25] was 4.07. The GI50 [1, 26] was 4.44, the GI50 [1, 27] was 4.09 and the GI50 [1, 28] was 4.34. It also gave a GI50 [1, 29] of 3.73, a GI50 [1, 30] of 4.18 and a GI50 [1, 31] of 4.23. The GI50 [1, 32] was 4.31, the GI50 [1, 33] was 4.87 and the GI50 ([1]; SUM52PE cell line, censored GI50 values) was 4.71. It also gave a GI50 [1, 34] of 4.87, a GI50 [1, 35] of 4.55 and a GI50 [1, 36] of 3.90. For the same molecule, the GI50 [1, 37] was 4.56, the GI50 ([1]; T47D cell line, censored GI50 values) was 3.95 and the GI50 ([1]; UACC812 cell line, censored GI50 values) was 4.81. For the same molecule, the GI50 ([1]; ZR75B cell line, censored GI50 values) was 3.52, the GI50 ([1]; ZR751 cell line, censored GI50 values) was 4.07 and the GI50 ([1]; ZR7530 cell line, censored GI50 values) was 4.55. For the same molecule, the GI50 ([1]; cell line 600MPE) was 3.82, the GI50 ([1]; cell line AU565) was 4.94 and the GI50 ([1]; cell line BT474) was 3.98. It also gave a GI50 ([1]; cell line BT483) of 5.82, a GI50 ([1]; cell line BT549) of 4.58 and a GI50 ([1]; cell line CAMA1) of 3.72. For the same molecule, the GI50 ([1]; cell line HCC38) was 4.76, the GI50 ([1]; cell line HCC70) was 4.82 and the GI50 ([1]; cell line HCC202) was 4.44. It also gave a GI50 ([1]; cell line HCC1143) of 3.85, a GI50 ([1]; cell line HCC1187) of 4.66 and a GI50 ([1]; cell line HCC1395) of 5.00. It also gave a GI50 ([1]; cell line HCC1419) of 4.15, a GI50 ([1]; cell line HCC1428) of 3.86 and a GI50 ([1]; cell line HCC1500) of 4.69. It also gave a GI50 ([1]; cell line HCC1806) of 4.80, a GI50 ([1]; cell line HCC1937) of 4.44 and a GI50 ([1]; cell line HCC1954) of 4.37. The GI50 ([1]; cell line HCC2185) was 4.69, the GI50 ([1]; cell line HCC3153) was 4.45 and the GI50 ([1]; cell line LY2) was 4.39. For the same molecule, the GI50 ([1]; cell line MCF7) was 3.77, the GI50 ([1]; cell line MDAMB134V) was 3.73 and the GI50 ([1]; cell line MDAMB157) was 4.07. It also gave a GI50 ([1]; cell line MDAMB175V) of 4.44, a GI50 ([1]; cell line MDAMB231) of 4.09 and a GI50 ([1]; cell line MDAMB361) of 4.34. It also gave a GI50 ([1]; cell line MDAMB415) of 3.73, a GI50 ([1]; cell line MDAMB436) of 4.18 and a GI50 ([1]; cell line MDAMB453) of 4.23. For the same molecule, the GI50 ([1]; cell line MDAMB468) was 4.31, the GI50 ([1]; cell line SKBR3) was 4.87 and the GI50 ([1]; cell line SUM52PE) was 4.71. It also gave a GI50 ([1]; cell line SUM149PT) of 4.87, a GI50 ([1]; cell line SUM159PT) of 4.55 and a GI50 ([1]; cell line SUM185PE) of 3.90. It also gave a GI50 ([1]; cell line SUM1315MO) of 4.56, a GI50 ([1]; cell line T47D) of 3.95 and a GI50 ([1]; cell line UACC812) of 4.81. The GI50 ([1]; cell line UACC893) was 3.04, the GI50 ([1]; cell line ZR75B) was 3.52 and the GI50 ([1]; cell line ZR751) was 4.07. The GI50 ([1]; cell line ZR7530) was 4.55, the Subtype specificity [2] was “Basal + Claudin-low” and the “association of response with amplification at 11q13 (CCND1)” value [3] was “associated with sensitivity; also recorded: associated with response”.
With CCn1cc(-c2ccnc3[nH]c(-c4cccc(CN(C)C)c4)cc23)c(-c2ccc(NC(=O)N(C)C)cc2)n1 [GSK1070916] the GI50 [1, 4] was 5.10, the GI50 [1, 5] was 5.52 and the GI50 [1, 6] was 5.19. For the same molecule, the GI50 [1, 7] was 5.35, the GI50 [1, 8] was 5.05 and the GI50 [1, 9] was 6.44. The GI50 [1, 10] was 6.59, the GI50 [1, 11] was 6.03 and the GI50 [1, 12] was 5.51. The GI50 [1, 13] was 7.95, the GI50 [1, 14] was 6.24 and the GI50 [1, 15] was 5.18. It also gave a GI50 [1, 16] of 5.19, a GI50 [1, 17] of 5.19 and a GI50 [1, 18] of 5.16. For the same molecule, the GI50 [1, 19] was 5.42, the GI50 [1, 20] was 5.56 and the GI50 [1, 21] was 6.34. The GI50 [1, 22] was 4.95, the GI50 [1, 23] was 5.06 and the GI50 [1, 24] was 5.57. It also gave a GI50 [1, 25] of 5.95, a GI50 [1, 26] of 5.07 and a GI50 [1, 27] of 5.78. For the same molecule, the GI50 [1, 28] was 5.19, the GI50 [1, 29] was 5.76 and the GI50 [1, 30] was 7.01. The GI50 [1, 31] was 5.51, the GI50 [1, 32] was 7.89 and the GI50 [1, 33] was 5.29. For the same molecule, the GI50 [1, 34] was 5.48, the GI50 [1, 35] was 5.77 and the GI50 [1, 36] was 5.94. The GI50 [1, 37] was 5.89, the GI50 ([1]; cell line 600MPE) was 5.10 and the GI50 ([1]; cell line AU565) was 5.52. The GI50 ([1]; cell line BT474) was 5.19, the GI50 ([1]; cell line BT483) was 5.35 and the GI50 ([1]; cell line CAMA1) was 5.05. For the same molecule, the GI50 ([1]; cell line HCC38) was 6.44, the GI50 ([1]; cell line HCC70) was 6.59 and the GI50 ([1]; cell line HCC202) was 6.03. It also gave a GI50 ([1]; cell line HCC1143) of 5.51, a GI50 ([1]; cell line HCC1187) of 7.95 and a GI50 ([1]; cell line HCC1395) of 6.24. The GI50 ([1]; cell line HCC1419) was 5.18, the GI50 ([1]; cell line HCC1428) was 5.19 and the GI50 ([1]; cell line HCC1500) was 5.19. For the same molecule, the GI50 ([1]; cell line HCC1806) was 5.16, the GI50 ([1]; cell line HCC1937) was 5.42 and the GI50 ([1]; cell line HCC1954) was 5.56. The GI50 ([1]; cell line HCC2185) was 6.34, the GI50 ([1]; cell line HCC3153) was 4.95 and the GI50 ([1]; cell line MCF7) was 5.06. For the same molecule, the GI50 ([1]; cell line MDAMB134V) was 5.57, the GI50 ([1]; cell line MDAMB157) was 5.95 and the GI50 ([1]; cell line MDAMB175V) was 5.07. For the same molecule, the GI50 ([1]; cell line MDAMB231) was 5.78, the GI50 ([1]; cell line MDAMB361) was 5.19 and the GI50 ([1]; cell line MDAMB415) was 5.76. For the same molecule, the GI50 ([1]; cell line MDAMB436) was 7.01, the GI50 ([1]; cell line MDAMB453) was 5.51 and the GI50 ([1]; cell line MDAMB468) was 7.89. The GI50 ([1]; cell line SKBR3) was 5.29, the GI50 ([1]; cell line SUM52PE) was 6.84 and the GI50 ([1]; cell line SUM149PT) was 5.48. It also gave a GI50 ([1]; cell line SUM159PT) of 5.77, a GI50 ([1]; cell line SUM185PE) of 5.94 and a GI50 ([1]; cell line SUM1315MO) of 5.89. It also gave a GI50 ([1]; cell line UACC812) of 4.51, a GI50 ([1]; cell line UACC893) of 5.06 and a GI50 ([1]; cell line ZR75B) of 5.75. For the same molecule, the GI50 ([1]; cell line ZR751) was 4.94, the GI50 ([1]; cell line ZR7530) was 4.71 and the “subtype-specific response (sensitivity by transcriptional subtype)” value ([2]; GI50 across subtypes) was “more active against basal and claudin-low cell lines”. The Subtype specificity [2] was “Claudin-low”, the “association of response with amplification at 11q13 (CCND1)” value [3] was “associated with sensitivity; also recorded: associated with response” and the “association of response with amplification at 20q13 (STK15/AURKA)” value [3] was “associated with resistance, rather than sensitivity”.
